Patent US20070036839A1, “Phosphorylated glucomannane polysaccharides containing 1-6 and 1-2 linkages increase weight gain in poultry” (priority 2005, published 2007)

Assay: Weekly hematology (CBC with differential); as to Red Blood Cells HCT: test concentration or dose not given here; as to White Blood Cells BASO: test concentration or dose not given here; as to White Blood Cells EOS: test concentration or dose not given here; as to White Blood Cells LYMP + MONO: test concentration or dose not given here; as to White Blood Cells NEUT: test concentration or dose not given here; as to White Blood Cells WBC: test concentration or dose not given here
Assay type: in vivo, Male Ross x Ross broiler chickens

Candida utilis phosphoglucomannan [CUP]
Others Het/Poly (Day 3, dose group 1): 14.67% | Red Blood Cells HCT (Day 3, dose group 1): 30.60% | White Blood Cells BASO (Day 3, dose group 1): 193.33 X/uL | White Blood Cells EOS (Day 3, dose group 1): 0.00 X/uL | White Blood Cells LYMP + MONO (Day 3, dose group 1): 2956.67 X/uL | White Blood Cells NEUT (Day 3, dose group 1): 516.67 X/uL | White Blood Cells WBC (Day 3, dose group 1): 3670 µL⁻¹ | Others Het/Poly (Day 3, dose group 3): 20.33% | Red Blood Cells HCT (Day 3, dose group 3): 28.67% | White Blood Cells BASO (Day 3, dose group 3): 78.33 X/uL | White Blood Cells EOS (Day 3, dose group 3): 6.67 X/uL | White Blood Cells LYMP + MONO (Day 3, dose group 3): 2595.00 X/uL | White Blood Cells NEUT (Day 3, dose group 3): 820.00 X/uL | White Blood Cells WBC (Day 3, dose group 3): 3500 µL⁻¹ | Others Het/Poly (Day 3, dose group 20): 17.67% | Red Blood Cells HCT (Day 3, dose group 20): 27.00% | White Blood Cells BASO (Day 3, dose group 20): 48.33 X/uL | White Blood Cells EOS (Day 3, dose group 20): 0.00 X/uL | White Blood Cells LYMP + MONO (Day 3, dose group 20): 2828.33 X/uL | White Blood Cells NEUT (Day 3, dose group 20): 623.33 X/uL | White Blood Cells WBC (Day 3, dose group 20): 3500 µL⁻¹ | Others Het/Poly (Day 7, dose group 1): 21.00% | White Blood Cells BASO (Day 7, dose group 1): 85.00 X/uL | White Blood Cells EOS (Day 7, dose group 1): 0.00 X/uL | White Blood Cells LYMP + MONO (Day 7, dose group 1): 4665.00 X/uL | White Blood Cells NEUT (Day 7, dose group 1): 1250.00 X/uL | White Blood Cells WBC (Day 7, dose group 1): 6000 µL⁻¹ | Others Het/Poly (Day 7, dose group 3): 21.33% | White Blood Cells BASO (Day 7, dose group 3): 193.33 X/uL | White Blood Cells EOS (Day 7, dose group 3): 0.00 X/uL | White Blood Cells LYMP + MONO (Day 7, dose group 3): 4253.33 X/uL | White Blood Cells NEUT (Day 7, dose group 3): 1220.00 X/uL | White Blood Cells WBC (Day 7, dose group 3): 5670 µL⁻¹ | Others Het/Poly (Day 7, dose group 20): 25.67% | White Blood Cells BASO (Day 7, dose group 20): 113.33 X/uL | White Blood Cells EOS (Day 7, dose group 20): 0.00 X/uL | White Blood Cells LYMP + MONO (Day 7, dose group 20): 4050.00 X/uL | White Blood Cells NEUT (Day 7, dose group 20): 1503.33 X/uL | White Blood Cells WBC (Day 7, dose group 20): 5670 µL⁻¹ | Others Het/Poly (Day 15, dose group 1): 41.33% | Red Blood Cells HCT (Day 15, dose group 1): 27.33% | White Blood Cells BASO (Day 15, dose group 1): 146.67 X/uL | White Blood Cells EOS (Day 15, dose group 1): 0.00 X/uL | White Blood Cells LYMP + MONO (Day 15, dose group 1): 4346.67 X/uL | White Blood Cells NEUT (Day 15, dose group 1): 3506.67 X/uL | White Blood Cells WBC (Day 15, dose group 1): 8000 µL⁻¹ | Others Het/Poly (Day 15, dose group 3): 39.00% | Red Blood Cells HCT (Day 15, dose group 3): 31.00% | White Blood Cells BASO (Day 15, dose group 3): 153.33 X/uL | White Blood Cells EOS (Day 15, dose group 3): 0.00 X/uL | White Blood Cells LYMP + MONO (Day 15, dose group 3): 4796.67 X/uL | White Blood Cells NEUT (Day 15, dose group 3): 3383.33 X/uL | White Blood Cells WBC (Day 15, dose group 3): 8330 µL⁻¹ | Others Het/Poly (Day 15, dose group 20): 45.33% | Red Blood Cells HCT (Day 15, dose group 20): 22.00% | White Blood Cells BASO (Day 15, dose group 20): 113.33 X/uL | White Blood Cells EOS (Day 15, dose group 20): 0.00 X/uL | White Blood Cells LYMP + MONO (Day 15, dose group 20): 3710.00 X/uL | White Blood Cells NEUT (Day 15, dose group 20): 2843.33 X/uL | White Blood Cells WBC (Day 15, dose group 20): 6670 µL⁻¹ | Others Het/Poly (Day 21, dose group 1): 29.00% | Red Blood Cells HCT (Day 21, dose group 1): 30.00% | White Blood Cells BASO (Day 21, dose group 1): 240.00 X/uL | White Blood Cells EOS (Day 21, dose group 1): 0.00 X/uL | White Blood Cells LYMP + MONO (Day 21, dose group 1): 5440.00 X/uL | White Blood Cells NEUT (Day 21, dose group 1): 2320.00 X/uL | White Blood Cells WBC (Day 21, dose group 1): 8000 µL⁻¹ | Others Het/Poly (Day 21, dose group 3): 26.00% | Red Blood Cells HCT (Day 21, dose group 3): 30.33% | White Blood Cells BASO (Day 21, dose group 3): 250.00 X/uL | White Blood Cells EOS (Day 21, dose group 3): 0.00 X/uL | White Blood Cells LYMP + MONO (Day 21, dose group 3): 6640.00 X/uL | White Blood Cells NEUT (Day 21, dose group 3): 2443.33 X/uL | White Blood Cells WBC (Day 21, dose group 3): 9330 µL⁻¹ | Others Het/Poly (Day 21, dose group 20): 32.67% | Red Blood Cells HCT (Day 21, dose group 20): 31.00% | White Blood Cells BASO (Day 21, dose group 20): 306.67 X/uL | White Blood Cells EOS (Day 21, dose group 20): 0.00 X/uL | White Blood Cells LYMP + MONO (Day 21, dose group 20): 6746.67 X/uL | White Blood Cells NEUT (Day 21, dose group 20): 3280.00 X/uL | White Blood Cells WBC (Day 21, dose group 20): 10330 µL⁻¹ | Others Het/Poly (Day 28, dose group 1): 42.00% | Red Blood Cells HCT (Day 28, dose group 1): 29.33% | White Blood Cells BASO (Day 28, dose group 1): 446.67 X/uL | White Blood Cells EOS (Day 28, dose group 1): 0.00 X/uL | White Blood Cells LYMP + MONO (Day 28, dose group 1): 4546.67 X/uL | White Blood Cells NEUT (Day 28, dose group 1): 3673.33 X/uL | White Blood Cells WBC (Day 28, dose group 1): 8670 µL⁻¹ | Others Het/Poly (Day 28, dose group 3): 44.67% | Red Blood Cells HCT (Day 28, dose group 3): 30.00% | White Blood Cells BASO (Day 28, dose group 3): 560.00 X/uL | White Blood Cells EOS (Day 28, dose group 3): 0.00 X/uL | White Blood Cells LYMP + MONO (Day 28, dose group 3): 3323.33 X/uL | White Blood Cells NEUT (Day 28, dose group 3): 3450.00 X/uL | White Blood Cells WBC (Day 28, dose group 3): 7330 µL⁻¹ | Others Het/Poly (Day 28, dose group 20): 45.00% | Red Blood Cells HCT (Day 28, dose group 20): 33.67% | White Blood Cells BASO (Day 28, dose group 20): 410.00 X/uL | White Blood Cells EOS (Day 28, dose group 20): 0.00 X/uL | White Blood Cells LYMP + MONO (Day 28, dose group 20): 4413.33 X/uL | White Blood Cells NEUT (Day 28, dose group 20): 3843.33 X/uL | White Blood Cells WBC (Day 28, dose group 20): 8670 µL⁻¹ | Others Het/Poly (Day 35, dose group 1): 31.33% | Red Blood Cells HCT (Day 35, dose group 1): 29.67% | White Blood Cells BASO (Day 35, dose group 1): 253.33 X/uL | White Blood Cells EOS (Day 35, dose group 1): 0.00 X/uL | White Blood Cells LYMP + MONO (Day 35, dose group 1): 5046.67 X/uL | White Blood Cells NEUT (Day 35, dose group 1): 2700.00 X/uL | White Blood Cells WBC (Day 35, dose group 1): 8000 µL⁻¹ | Others Het/Poly (Day 35, dose group 3): 39.67% | Red Blood Cells HCT (Day 35, dose group 3): 31.67% | White Blood Cells BASO (Day 35, dose group 3): 310.00 X/uL | White Blood Cells EOS (Day 35, dose group 3): 0.00 X/uL | White Blood Cells LYMP + MONO (Day 35, dose group 3): 4876.67 X/uL | White Blood Cells NEUT (Day 35, dose group 3): 3146.67 X/uL | White Blood Cells WBC (Day 35, dose group 3): 8330 µL⁻¹ | Others Het/Poly (Day 35, dose group 20): 31.00% | Red Blood Cells HCT (Day 35, dose group 20): 28.67% | White Blood Cells BASO (Day 35, dose group 20): 350.00 X/uL | White Blood Cells EOS (Day 35, dose group 20): 0.00 X/uL | White Blood Cells LYMP + MONO (Day 35, dose group 20): 5230.00 X/uL | White Blood Cells NEUT (Day 35, dose group 20): 2420.00 X/uL | White Blood Cells WBC (Day 35, dose group 20): 8000 µL⁻¹ | Others Het/Poly (Day 42, dose group 1): 50.00% | Red Blood Cells HCT (Day 42, dose group 1): 27.67% | White Blood Cells BASO (Day 42, dose group 1): 353.33 X/uL | White Blood Cells EOS (Day 42, dose group 1): 106.67 X/uL | White Blood Cells LYMP + MONO (Day 42, dose group 1): 3913.33 X/uL | White Blood Cells NEUT (Day 42, dose group 1): 4626.67 X/uL | White Blood Cells WBC (Day 42, dose group 1): 9000 µL⁻¹ | Others Het/Poly (Day 42, dose group 3): 34.33% | Red Blood Cells HCT (Day 42, dose group 3): 27.50% | White Blood Cells BASO (Day 42, dose group 3): 710.00 X/uL | White Blood Cells EOS (Day 42, dose group 3): 0.00 X/uL | White Blood Cells LYMP + MONO (Day 42, dose group 3): 4816.67 X/uL | White Blood Cells NEUT (Day 42, dose group 3): 2806.67 X/uL | White Blood Cells WBC (Day 42, dose group 3): 8330 µL⁻¹ | Others Het/Poly (Day 42, dose group 20): 43.00% | Red Blood Cells HCT (Day 42, dose group 20): 34.67% | White Blood Cells BASO (Day 42, dose group 20): 360.00 X/uL | White Blood Cells EOS (Day 42, dose group 20): 0.00 X/uL | White Blood Cells LYMP + MONO (Day 42, dose group 20): 4960.00 X/uL | White Blood Cells NEUT (Day 42, dose group 20): 4013.33 X/uL | White Blood Cells WBC (Day 42, dose group 20): 9330 µL⁻¹ | Others Het/Poly (Day 49, dose group 1): 32.00% | Red Blood Cells HCT (Day 49, dose group 1): 30.00% | White Blood Cells BASO (Day 49, dose group 1): 370.00 X/uL | White Blood Cells EOS (Day 49, dose group 1): 0.00 X/uL | White Blood Cells LYMP + MONO (Day 49, dose group 1): 5266.67 X/uL | White Blood Cells NEUT (Day 49, dose group 1): 2696.67 X/uL | White Blood Cells WBC (Day 49, dose group 1): 8330 µL⁻¹ | Others Het/Poly (Day 49, dose group 3): 31.33% | Red Blood Cells HCT (Day 49, dose group 3): 29.67% | White Blood Cells BASO (Day 49, dose group 3): 263.33 X/uL | White Blood Cells EOS (Day 49, dose group 3): 0.00 X/uL | White Blood Cells LYMP + MONO (Day 49, dose group 3): 6606.67 X/uL | White Blood Cells NEUT (Day 49, dose group 3): 3130.00 X/uL | White Blood Cells WBC (Day 49, dose group 3): 10000 µL⁻¹ | Others Het/Poly (Day 49, dose group 20): 30.33% | Red Blood Cells HCT (Day 49, dose group 20): 31.33% | White Blood Cells BASO (Day 49, dose group 20): 236.67 X/uL | White Blood Cells EOS (Day 49, dose group 20): 0.00 X/uL | White Blood Cells LYMP + MONO (Day 49, dose group 20): 5846.67 X/uL | White Blood Cells NEUT (Day 49, dose group 20): 2583.33 X/uL | White Blood Cells WBC (Day 49, dose group 20): 8670 µL⁻¹
